What was measured:
[1] = target: Prothrombin (Homo sapiens, UniProt P00734); test: Inhibitory activity towards Thrombin
[2] = target: Serine protease 1 (Homo sapiens, UniProt P07477); test: Inhibitory activity towards Trypsin
Chain of Serine protease 1 (P07477 whole entry): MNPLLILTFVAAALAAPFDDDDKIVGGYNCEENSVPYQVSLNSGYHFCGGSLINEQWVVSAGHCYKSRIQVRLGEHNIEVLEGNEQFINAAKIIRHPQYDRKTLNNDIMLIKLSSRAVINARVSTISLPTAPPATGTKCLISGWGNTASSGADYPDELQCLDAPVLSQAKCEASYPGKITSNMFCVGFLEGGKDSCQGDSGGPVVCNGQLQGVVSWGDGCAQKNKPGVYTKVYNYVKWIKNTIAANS

Row | Ki [1] [nM] | IC50 [2] [nM] | Ki [2] [nM] | Structure (SMILES)
1 | 0.6 | 1 |  | N=C(N)NCCC[C@H](NC(=O)[C@@H]1CC[C@H]2CN(C(=O)CCc3ccccc3)CC(=O)N21)C(=O)c1nccs1
2 | 3.5 |  | 4000 | N=C(N)N1CCCC(C[C@H](NC(=O)[C@@H]2CC[C@H]3CN(C(=O)CCc4ccccc4)CC(=O)N32)C(=O)c2nccs2)C1 (some centres undefined)

From ChEMBL document CHEMBL1133576, “Structural basis of the thrombin selectivity of a ligand that contains the constrained arginine mimic (2S)-2-amino-(3S)-3-(1-carbamimidoyl- piperidin-3-yl)-propanoic acid at P1” (J Med Chem, 2000)
